Measurements published in patent publication US10039283B2, “Substituted pyrazolyl-nicotin(thio)amide derivatives and their use as fungicides” (BAYER CROPSCIENCE AKTIENGESELLSCHAFT, priority 2014, dated 2018).

Legend:
[1] = Log P by HPLC on reversed phase, method [b], neutral range (0.001 molar ammonium acetate); type: physicochemical
Procedure: Measurement of Log P values was performed according to EEC directive 79/831 Annex V.A8 by HPLC (High Performance Liquid Chromatography) on reversed phase columns with the following methods: [b] Log P value is determined by measurement of LC-UV, in a neutral range, with 0.001 molar ammonium acetate solution in water and acetonitrile as eluent (linear gradient from 10% acetonitrile to 95% acetonitrile). Calibration was done with straight-chain alkan2-ones (with 3 to 16 carbon atoms) with known Log P values (measurement of Log P values using retention times with linear interpolation between successive alkanones). Lambda-max-values were determined using UV-spectra from 200 nm to 400 nm and the peak values of the chromatographic signals.

[2] = Log P by HPLC on reversed phase, method [a], acidic range (0.1% formic acid); type: physicochemical; settings: LC-UV, 0.1% formic acid in water and acetonitrile

SMILES: O=C(Nc1cnn(-c2c(F)cccc2F)c1C(F)(F)F)c1cccnc1C(F)(F)F [Example 19]
- LogP [1]: 2.72^[b]
- LogP [2]: 2.79^[a];

SMILES: O=C(Nc1cnn(-c2ccccc2Cl)c1C(F)(F)F)c1cccnc1C(F)(F)F [Example 20]
- LogP [1]: 2.80^[b]
- LogP [2]: 2.87^[a];

SMILES: O=C(Nc1cnn(-c2c(F)cccc2F)c1C(F)(F)F)c1cccnc1C(F)F [Example 21]
- LogP [1]: 2.43^[b]
- LogP [2]: 2.50^[a];

SMILES: Cc1c(NC(=O)c2cccnc2C(F)F)cnn1-c1ccccc1F [Example 22]
- LogP [1]: 1.68^[b]
- LogP [2]: 1.71^[a];

SMILES: O=C(Nc1cnn(-c2ccccc2Cl)c1C(F)(F)F)c1cccnc1C(F)F [Example 77]
- LogP [1]: 2.53^[b]
- LogP [2]: 2.58^[a];

SMILES: CCc1ccc(-n2ncc(NC(=O)c3cccnc3C(F)F)c2C(F)(F)F)cc1 [Example 255]
- LogP [2]: 3.19^[a]
